In ChEMBL document CHEMBL5226338, “Molecular hybrids: A five-year survey on structures of multiple targeted hybrids of protein kinase inhibitors for cancer therapy” (Eur J Med Chem, 2021):

Columns and labels:
[1] = Cytotoxicity against human U87 cells; format: functional, cell-based, U-87MG ATCC; settings: U-87 MG
[2] = Inhibition of sheep brain tubulin polymerization by DAPI staining based fluorescence analysis; format: tissue-based, Ovis aries
[3] = molecular target: [Pyruvate dehydrogenase (acetyl-transferring)] kinase isozyme 1, mitochondrial (Homo sapiens, UniProt Q15118); experiment: Inhibition of human recombinant PDHK1 using KKKYHGHSMSDPGVSYRT as substrate incubated for 40 mins in presence of Mg/ATP mix by [gamma-32P]-ATP based scintillation counting analysis
PANC-1 = experiment: Antiproliferative activity against human PANC-1 cells assessed as inhibition of cell growth incubated for 24 to 72 hrs by MTT assay; format: functional, cell-based
HGC-27 = experiment: Antiproliferative activity against human HGC-27 cells assessed as inhibition of cell growth incubated for 24 to 72 hrs by MTT assay; format: functional, cell-based
T-24 = experiment: Antiproliferative activity against human T24 cells assessed as inhibition of cell growth incubated for 24 to 72 hrs by MTT assay; format: functional, cell-based
[4] = molecular target: DNA topoisomerase 2-alpha (Homo sapiens, UniProt P11388); experiment: Inhibition of human topoisomerase 2 alpha assessed as relaxation of supercoiled plasmid pBR322 DNA incubated for 30 mins by ethidium bromide staining based agarose gel electrophoresis
DU-145 = experiment: Antiproliferative activity against human DU-145 cells assessed as inhibition of cell growth incubated for 24 to 72 hrs by MTT assay; format: functional, cell-based
CAPAN-1 = experiment: Antiproliferative activity against human CAPAN-1 cells assessed as inhibition of cell growth incubated for 24 to 72 hrs by MTT assay; format: functional, cell-based
[5] = Inhibition of tyrosine kinase in human CAPAN-1 cells; format: cell-based
[6] = Inhibition of tyrosine kinase in human PANC-1 cells; format: cell-based
BGC-823 = experiment: Antiproliferative activity against human BGC-823 cells assessed as inhibition of cell growth incubated for 24 to 72 hrs by MTT assay; format: functional, cell-based
[7] = molecular target: T1, Epidermal growth factor receptor (Homo sapiens, UniProt P00533); experiment: Inhibition of EGFR (unknown origin)
[8] = molecular target: T2, Vascular endothelial growth factor receptor 2 (Homo sapiens, UniProt P35968); experiment: Inhibition of human VEGFR2 using TMB as substrate by ELISA
[9] = molecular target: Tubulin beta (Homo sapiens) (UniProt P68371+Q9H4B7+Q13509+P04350+Q3ZCM7+P07437+Q13885+Q9BVA1+Q9BUF5+A6NNZ2); experiment: Inhibition of beta-tubulin polymerization in human HepG2 cells using TMB substrate by spectrophotometry analysis relative to control; format: cell-based; settings: concentration not given here
[10] = molecular target: T1, Epidermal growth factor receptor; experiment: Inhibition of EGFR (unknown origin) by ELISA
[11] = molecular target: T2, Vascular endothelial growth factor receptor 2; experiment: Inhibition of VEGFR2 (unknown origin) by ELISA
DNA topoisomerase 2-beta = DNA topoisomerase 2-beta (Homo sapiens, UniProt Q02880); experiment: Inhibition of human DNA topoisomerase 2-beta
[12] = molecular target: Serine/threonine-protein kinase B-raf (Homo sapiens, UniProt P15056, V600E); experiment: Inhibition of full length human BRAF V600E mutant using His-tagged full length human MEK1 (K97R) as substrate incubated for 20 mins by [gamma-33P]ATP based filter-binding method
Histone deacetylase 1 [13] = molecular target: T3, Histone deacetylase 1 (Homo sapiens, UniProt Q13547); experiment: Inhibition of recombinant HDAC1 (unknown origin) using Fluor-de-Lys as substrate incubated for 10 mins by fluorescence based analysis
Tubulin beta [14] = experiment: Inhibition of beta-tubulin polymerization (unknown origin) by ELISA; format: protein assay, Homo sapiens
K562 [15] = experiment: Cytotoxicity against human K562 cells assessed as inhibition of cell growth; format: functional, cell-based
K562 [16] = experiment: Cytotoxicity against imatinib-resistant human K562 cells assessed as inhibition of cell growth; format: functional, cell-based
[17] = molecular target: T4, Protein deacetylase HDAC6 (Homo sapiens, UniProt Q9UBN7); experiment: Inhibition of HDAC6 (unknown origin)
T4 sequence (Q9UBN7 whole entry): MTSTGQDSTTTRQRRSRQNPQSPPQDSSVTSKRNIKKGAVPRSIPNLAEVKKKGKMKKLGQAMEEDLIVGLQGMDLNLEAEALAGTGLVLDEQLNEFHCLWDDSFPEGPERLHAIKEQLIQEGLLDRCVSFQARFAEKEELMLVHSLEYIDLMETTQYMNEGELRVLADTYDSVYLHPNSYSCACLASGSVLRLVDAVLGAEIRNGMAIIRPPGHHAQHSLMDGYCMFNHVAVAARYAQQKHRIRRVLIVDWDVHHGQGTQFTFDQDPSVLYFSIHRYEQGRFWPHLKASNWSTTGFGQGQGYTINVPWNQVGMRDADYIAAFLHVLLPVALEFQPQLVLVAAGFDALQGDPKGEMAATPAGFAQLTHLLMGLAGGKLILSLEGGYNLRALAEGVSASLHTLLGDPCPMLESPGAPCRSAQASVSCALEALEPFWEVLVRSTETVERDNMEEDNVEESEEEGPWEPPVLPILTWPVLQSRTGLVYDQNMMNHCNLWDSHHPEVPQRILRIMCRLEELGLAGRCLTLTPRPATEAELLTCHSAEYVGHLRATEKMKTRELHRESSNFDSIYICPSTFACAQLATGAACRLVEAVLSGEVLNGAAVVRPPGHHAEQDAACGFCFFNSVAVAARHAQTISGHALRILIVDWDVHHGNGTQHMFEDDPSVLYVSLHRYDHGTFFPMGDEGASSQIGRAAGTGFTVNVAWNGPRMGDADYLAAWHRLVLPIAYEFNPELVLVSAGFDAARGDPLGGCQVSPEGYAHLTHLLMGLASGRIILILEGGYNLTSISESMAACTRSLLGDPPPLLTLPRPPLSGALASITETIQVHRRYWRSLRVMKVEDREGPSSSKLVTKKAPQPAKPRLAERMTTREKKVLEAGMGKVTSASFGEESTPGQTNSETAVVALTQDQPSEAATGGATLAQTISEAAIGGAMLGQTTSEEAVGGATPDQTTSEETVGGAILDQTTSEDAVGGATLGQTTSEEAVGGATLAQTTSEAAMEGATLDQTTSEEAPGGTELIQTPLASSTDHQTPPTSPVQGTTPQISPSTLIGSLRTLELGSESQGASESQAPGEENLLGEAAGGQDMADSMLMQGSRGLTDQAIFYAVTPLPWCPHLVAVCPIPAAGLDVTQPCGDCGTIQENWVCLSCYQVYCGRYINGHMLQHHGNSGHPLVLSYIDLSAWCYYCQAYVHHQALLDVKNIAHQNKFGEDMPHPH

A-431 = experiment: Cytotoxicity against human A-431 cells; format: functional, cell-based
Histone deacetylase 1 [18] = molecular target: T3, Histone deacetylase 1; experiment: Inhibition of HDAC1 (unknown origin)
NCI-H1975 = experiment: Cytotoxicity against human NCI-H1975 cells; format: functional, cell-based
A549 = experiment: Antiproliferative activity against human A549 cells assessed as inhibition of cell growth incubated for 48 hrs by MTT assay; format: functional, cell-based; settings: A549, 48 h
[19] = molecular target: T1, Epidermal growth factor receptor; experiment: Inhibition of EGFR (unknown origin) phosphorylation using kit-tyr4 peptide as substrate incubated for 1 hr in presence of ATP by UV-Vis spectrophotometer
Tubulin beta [20] = experiment: Inhibition of beta-tubulin polymerization in human HCT-116 cells using TMB substrate by ELISA; format: cell-based
[21] = molecular target: T1, Epidermal growth factor receptor; experiment: Inhibition of GST-fused EGFR (unknown origin) in presence of ATP by microplate reader analysis

T1 sequence (P00533 whole entry): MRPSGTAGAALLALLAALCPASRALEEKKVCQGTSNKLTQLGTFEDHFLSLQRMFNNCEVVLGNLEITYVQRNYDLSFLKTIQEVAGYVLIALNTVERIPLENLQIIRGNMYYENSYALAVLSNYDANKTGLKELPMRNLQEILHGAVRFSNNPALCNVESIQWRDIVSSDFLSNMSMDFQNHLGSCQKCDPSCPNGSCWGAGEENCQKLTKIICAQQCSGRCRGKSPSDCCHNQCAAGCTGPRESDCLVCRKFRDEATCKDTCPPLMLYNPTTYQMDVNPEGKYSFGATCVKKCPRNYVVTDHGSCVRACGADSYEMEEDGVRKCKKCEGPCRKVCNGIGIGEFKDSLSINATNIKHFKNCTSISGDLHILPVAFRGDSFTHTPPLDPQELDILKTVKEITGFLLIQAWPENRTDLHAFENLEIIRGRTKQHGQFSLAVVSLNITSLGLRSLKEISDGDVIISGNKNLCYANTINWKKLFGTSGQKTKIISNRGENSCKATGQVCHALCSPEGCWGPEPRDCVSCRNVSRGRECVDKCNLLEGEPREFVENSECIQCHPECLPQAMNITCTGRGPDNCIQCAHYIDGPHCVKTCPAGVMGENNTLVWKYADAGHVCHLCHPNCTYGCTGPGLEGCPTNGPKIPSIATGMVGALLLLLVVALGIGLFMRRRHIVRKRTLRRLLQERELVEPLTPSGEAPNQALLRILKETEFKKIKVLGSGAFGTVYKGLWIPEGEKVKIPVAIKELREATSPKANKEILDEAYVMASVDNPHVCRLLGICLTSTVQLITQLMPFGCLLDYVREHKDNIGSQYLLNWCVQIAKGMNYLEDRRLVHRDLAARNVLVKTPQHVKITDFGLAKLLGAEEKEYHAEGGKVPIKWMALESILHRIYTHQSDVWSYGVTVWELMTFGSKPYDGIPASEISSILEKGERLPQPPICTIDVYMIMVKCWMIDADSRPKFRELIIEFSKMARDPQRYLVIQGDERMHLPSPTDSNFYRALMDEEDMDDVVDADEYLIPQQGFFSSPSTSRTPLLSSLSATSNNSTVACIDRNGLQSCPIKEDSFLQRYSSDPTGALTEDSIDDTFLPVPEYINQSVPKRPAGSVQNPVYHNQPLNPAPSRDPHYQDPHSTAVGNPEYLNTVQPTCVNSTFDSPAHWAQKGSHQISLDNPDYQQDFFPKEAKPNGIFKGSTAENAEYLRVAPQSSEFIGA
T2 sequence (P35968 whole entry): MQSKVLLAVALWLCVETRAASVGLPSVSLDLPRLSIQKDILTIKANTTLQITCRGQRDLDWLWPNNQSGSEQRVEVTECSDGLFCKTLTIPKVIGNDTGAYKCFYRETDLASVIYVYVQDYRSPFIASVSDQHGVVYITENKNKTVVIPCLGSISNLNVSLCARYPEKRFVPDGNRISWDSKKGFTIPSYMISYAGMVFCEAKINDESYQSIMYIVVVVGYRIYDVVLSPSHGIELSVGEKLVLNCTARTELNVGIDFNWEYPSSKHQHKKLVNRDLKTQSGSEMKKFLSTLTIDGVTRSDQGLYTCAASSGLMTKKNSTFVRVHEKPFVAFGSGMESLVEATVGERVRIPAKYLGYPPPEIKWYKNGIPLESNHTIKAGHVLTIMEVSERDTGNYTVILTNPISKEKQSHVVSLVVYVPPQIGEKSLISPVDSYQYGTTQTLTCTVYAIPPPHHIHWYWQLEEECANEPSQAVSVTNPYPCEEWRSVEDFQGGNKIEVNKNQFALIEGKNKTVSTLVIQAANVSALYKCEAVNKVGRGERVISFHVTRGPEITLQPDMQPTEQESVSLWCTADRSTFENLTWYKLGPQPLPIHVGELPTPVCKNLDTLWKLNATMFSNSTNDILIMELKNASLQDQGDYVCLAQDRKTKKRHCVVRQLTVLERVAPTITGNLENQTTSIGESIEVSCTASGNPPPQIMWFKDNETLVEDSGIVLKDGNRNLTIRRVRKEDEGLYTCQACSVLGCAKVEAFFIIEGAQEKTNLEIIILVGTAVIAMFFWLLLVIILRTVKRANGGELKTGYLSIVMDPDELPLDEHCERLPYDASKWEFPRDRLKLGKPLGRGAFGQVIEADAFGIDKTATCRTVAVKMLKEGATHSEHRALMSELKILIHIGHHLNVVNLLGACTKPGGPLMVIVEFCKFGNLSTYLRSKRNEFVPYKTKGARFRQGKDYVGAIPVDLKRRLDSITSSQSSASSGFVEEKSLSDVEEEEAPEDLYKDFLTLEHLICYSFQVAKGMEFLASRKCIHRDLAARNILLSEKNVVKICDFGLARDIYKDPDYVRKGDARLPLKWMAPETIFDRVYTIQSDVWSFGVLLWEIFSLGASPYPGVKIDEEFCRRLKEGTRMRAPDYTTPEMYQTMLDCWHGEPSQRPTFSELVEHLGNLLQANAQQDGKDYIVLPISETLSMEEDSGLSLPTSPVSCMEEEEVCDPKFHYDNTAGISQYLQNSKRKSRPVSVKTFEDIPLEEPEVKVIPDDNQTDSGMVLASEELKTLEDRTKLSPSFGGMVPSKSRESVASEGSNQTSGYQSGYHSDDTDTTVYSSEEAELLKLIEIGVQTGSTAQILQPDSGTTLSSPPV
T3 sequence (Q13547 whole entry): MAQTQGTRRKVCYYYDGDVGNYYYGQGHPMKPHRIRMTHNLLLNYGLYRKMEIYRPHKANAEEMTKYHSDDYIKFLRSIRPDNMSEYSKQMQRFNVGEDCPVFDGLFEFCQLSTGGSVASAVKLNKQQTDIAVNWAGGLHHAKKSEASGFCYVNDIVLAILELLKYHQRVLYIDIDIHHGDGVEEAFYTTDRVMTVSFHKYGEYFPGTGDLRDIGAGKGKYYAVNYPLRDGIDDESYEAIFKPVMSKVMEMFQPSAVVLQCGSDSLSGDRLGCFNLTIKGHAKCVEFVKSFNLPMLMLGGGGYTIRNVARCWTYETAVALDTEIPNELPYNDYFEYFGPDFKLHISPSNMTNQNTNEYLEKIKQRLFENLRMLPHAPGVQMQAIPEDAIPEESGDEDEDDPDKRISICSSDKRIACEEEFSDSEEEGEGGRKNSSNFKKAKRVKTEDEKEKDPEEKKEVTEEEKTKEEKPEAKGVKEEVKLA
Chain of Serine/threonine-protein kinase B-raf (P15056 2-766 V600E limits assumed): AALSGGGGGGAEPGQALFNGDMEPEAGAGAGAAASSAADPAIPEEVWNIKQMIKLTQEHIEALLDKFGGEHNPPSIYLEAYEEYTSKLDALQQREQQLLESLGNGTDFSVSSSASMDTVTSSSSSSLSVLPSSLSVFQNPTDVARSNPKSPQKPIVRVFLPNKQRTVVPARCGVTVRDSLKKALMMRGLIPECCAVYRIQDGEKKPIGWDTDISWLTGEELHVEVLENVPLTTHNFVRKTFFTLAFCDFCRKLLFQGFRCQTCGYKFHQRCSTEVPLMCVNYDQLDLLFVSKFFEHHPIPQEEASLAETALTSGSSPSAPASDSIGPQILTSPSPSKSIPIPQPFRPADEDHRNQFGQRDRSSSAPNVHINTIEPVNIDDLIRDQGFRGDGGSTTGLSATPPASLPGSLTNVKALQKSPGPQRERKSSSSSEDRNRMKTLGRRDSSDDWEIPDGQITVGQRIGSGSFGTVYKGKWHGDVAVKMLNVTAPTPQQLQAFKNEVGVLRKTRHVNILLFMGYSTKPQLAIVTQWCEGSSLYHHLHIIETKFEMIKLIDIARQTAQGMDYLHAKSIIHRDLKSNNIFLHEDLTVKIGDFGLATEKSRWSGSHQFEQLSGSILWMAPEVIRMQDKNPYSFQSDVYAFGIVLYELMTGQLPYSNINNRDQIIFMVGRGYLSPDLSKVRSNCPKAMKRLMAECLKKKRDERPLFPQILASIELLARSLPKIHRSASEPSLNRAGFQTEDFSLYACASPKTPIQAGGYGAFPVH
Chain of [Pyruvate dehydrogenase (acetyl-transferring)] kinase isozyme 1, mitochondrial (Q15118 whole entry): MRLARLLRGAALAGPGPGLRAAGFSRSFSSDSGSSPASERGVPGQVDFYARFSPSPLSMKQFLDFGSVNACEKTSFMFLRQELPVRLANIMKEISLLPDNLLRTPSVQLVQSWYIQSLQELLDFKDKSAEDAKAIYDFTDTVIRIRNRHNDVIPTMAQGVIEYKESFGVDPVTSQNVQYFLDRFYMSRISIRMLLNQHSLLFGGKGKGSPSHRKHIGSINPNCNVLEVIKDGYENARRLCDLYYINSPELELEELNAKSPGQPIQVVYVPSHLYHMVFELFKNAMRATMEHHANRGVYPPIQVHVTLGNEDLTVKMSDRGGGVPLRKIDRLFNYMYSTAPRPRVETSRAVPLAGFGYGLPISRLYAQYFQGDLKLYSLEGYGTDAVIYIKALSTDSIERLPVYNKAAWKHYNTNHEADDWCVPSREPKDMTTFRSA

## C=C[C@]1(C)CC[C@@H](C(=C)COC(=O)CNC(=O)CCC(=O)OCCCCOc2no[n+]([O-])c2S(=O)(=O)c2ccccc2)C[C@H]1C(=C)C
[1]
  IC50: 2 nM

## COc1ccc(C(=O)c2cc(OC)c(OC)c(OC)c2)cc1OC(=O)C(Cl)Cl
[2]
  IC50: 260 nM
[3]
  IC50: 12000 nM

## CN1CCN(c2cc3c(cc2F)C(=O)C(/C=C2\CN(C4CC4)c4cc(N5CCNCC5)c(F)cc4C2=O)CN3C2CC2)CC1 (centres undefined)
PANC-1
  IC50: 312 nM
HGC-27
  IC50: 312 nM
T-24
  IC50: 312 nM
[4]
  IC50: 1600 nM
DU-145
  IC50: 312 nM
CAPAN-1
  IC50: 312 nM
[5]
  IC50: 640 nM
[6]
  IC50: 3100 nM
BGC-823
  IC50: 312 nM

## Cc1cc(NC2=NC(=O)/C(=C/c3c4ccccc4cc4ccccc34)S2)no1
[7]
  IC50: 45 nM

## COc1ccc(NC(=O)c2c(Nc3ccccc3)sc(C(=O)N/N=C/c3ccc(O)c(O)c3)c2NC(C)=O)cc1
[8]
  IC50: 1290 nM
[9]
  inhibition: 86%

## COc1ccc(NC(=O)c2c(Nc3ccccc3)sc(C#N)c2NC(=O)CNc2ccc(Cl)cc2)cc1
[8]
  IC50: 590 nM
[9]
  inhibition: 73%

## Cc1ccc2c(=O)n(Cc3ccccc3)c(SCc3cn(-c4ccc(C(=O)O)cc4)nn3)nc2c1
[10]
  IC50: 38.8 nM
[11]
  IC50: 126 nM
DNA topoisomerase 2-beta
  IC50: 25.8 nM

## COc1ccc(NC(=O)Nc2ccc(Oc3ccc(C(=O)c4ncc[nH]4)cc3)cc2)cc1
[12]
  IC50: 1700 nM
Histone deacetylase 1 [13]
  IC50: 635 nM

## O=C(Nc1ccccc1C(=O)N/N=C/c1ccc(O)cc1O)c1ccco1
Tubulin beta [14]
  IC50: 108.4 nM

## COc1ccc(S(=O)(=O)N2CCc3cccc(NC=O)c32)cc1
K562 [15]
  IC50: 390 nM
K562 [16]
  IC50: 410 nM

## O=C(CCCCCn1cc(-c2ccc3ncnc(Nc4ccc(Br)cc4F)c3c2)nn1)NO
[17]
  IC50: 4.3 nM
A-431
  IC50: 260 nM
Histone deacetylase 1 [18]
  IC50: 1.1 nM
NCI-H1975
  IC50: 910 nM
[7]
  IC50: 10.3 nM

## COc1ccc(CNc2nc3ccccc3c(NCc3ccc(OC)cc3)c2[N+](=O)[O-])cc1
A549
  IC50: 6500 nM
[19]
  IC50: 220 nM

## CCc1nnc2c(Nc3ccc(C(=O)/C=C/c4cc(OC)c(OC)c(OC)c4)cc3)nc3ccccc3n12
Tubulin beta [20]
  IC50: 8400 nM
[21]
  IC50: 93 nM
